Patent US20040071633A1, “Method for determining efficacy of reverse cholesterol transport enhancing agents” (priority 2003, published 2004)

Assays:
CD14 mRNA = CD14 mRNA expression by real-time quantitative TaqMan PCR in THP-1 or HepG2 cells; assay type: cell-based, human
Experimental: (§1) FIGS. 5a and 5b are graphs showing that activation of LXR increases mRNA expression of ABCA1 and CD14. THP-1 or HepG2 cells (5×10^5 cells/well) were plated in 6-well plates, and mixed with buffer (open bar) or 22(R)—OH cholesterol (10 μM, closed bar). After overnight incubation (˜16 hr) at 37° C., RNA samples were prepared from the cultured cells, and mRNAs for ABCA1 (a) and CD14 (b) were measured as described in Example 4, below. Results are presented as fold of control (untreated cells), and data are shown as the means±range of duplicate determinations.
(§2) Recent studies indicate that cholesterol efflux from cells is regulated by the transcription factor, LXR, which binds regulatory oxysterols and enhances expression of ABCA1 (see Costet, P., Luo, Y., Wang, N., and Tall, A. R. (2000) J. Biol. Chem. 275, 28240-28245; and Schwartz, K., Lawn, R. M., and Wade, D. P. (2000) Biochem. Biophys. Res. Commun. 274, 794-802.). If CD14 shared with ABCA1 a role in cholesterol efflux from cells, the expression of CD14 might be regulated in parallel with ABCA1 to help achieve cholesterol homeostasis. To test this, cells were incubated with 22(R)-hydroxycholesterol (22R—OH cholesterol), a specific ligand for LXR, and expression of ABCA1 and CD14 mRNA was measured by real time PCR. […] The dose dependence for induction of ABCA1 and CD14 was roughly similar with half-maximal induction observed at ˜10 μM (not shown). Induction of ABCA1 appeared slightly more rapid than that of CD14, but both reached a plateau level by 16 hr. The magnitude of the response of CD14 to 22R—OH cholesterol was less than that observed for ABCA1, but the increase was consistently seen with either of these two cell types. […]
(§3) Real-time quantitative TaqMan PCR analysis (Heid, C. A., Stevens, J., Livak, K. J., and Williams, P. M. (1996) Genome Res. 6, 986-994) was used to determine the relative levels of CD14 and ABCA1 mRNA. […] Sequence-specific amplification was detected with an increased fluorescent signal of FAM (reporter dye) during the amplification cycle. […]

ABCA1 mRNA = ABCA1 mRNA expression by real-time quantitative TaqMan PCR in THP-1 or HepG2 cells; assay type: cell-based, human
Experimental: as §1, §2, §3

THP-1 cells [1] = experiment: cholesterol efflux from [3H]cholesterol-labeled THP-1 cells mediated by sCD14 or apo A-I; assay type: cell-based
Experimental: FIGS. 1a, 1b and 1c are graphs showing the effect of sCD14 concentration on cholesterol efflux. [^3H]cholesterol-labeled THP-1 cells were incubated with the indicated concentration of sCD14 (closed circles), apo A-I (open circles) or HSA (inverted triangles) in RPMI for 30 min (a and b) or for 20 h (c). Each point represents the mean of three measurements±SD (a) or the average of duplicate samples±range (b and c). Data are representative of five independent experiments with similar results.
[^3H]cholesterol-labeled THP-1 cells were incubated with increasing concentrations of sCD14, apo A-I or the control protein, HSA, and radioactivity in the supernatant was determined. The initial rate of cholesterol efflux was explored in studies of short duration (30 min, FIG. 1a and with extended dose response in FIG. 1b). […] Because of the linear dose-dependence of sCD14-mediated efflux and because no other cholesterol acceptor was present in the incubation, these observations appear most consistent with a direct, low affinity binding of cholesterol to sCD14.
The maximal extent of cholesterol efflux mediated by apo A-I and sCD14 was explored in parallel experiments of 24 hr duration (FIG. 1c). […] However, because of the limiting concentrations of sCD14 in plasma (3-5 μg/ml) and the far greater concentration of apo A-I (˜1 mg/ml), sCD14 per se is unlikely to be a significant reservoir or destination for the cholesterol in plasma.

THP-1 cells [2] = experiment: sCD14 acceleration of cholesterol efflux from [3H]cholesterol-labeled THP-1 cells to apo A-I, HDL3 or HDL; assay type: cell-based; conditions: sCD14 5 μg/ml alone or apo A-I 100 μg/ml alone
Experimental: FIG. 2 is a graph showing the kinetics of cholesterol efflux by sCD14 and/or apo A-I. [^3H]cholesterol-labeled THP-1 cells were incubated with or without 5 μg/ml of sCD14 and/or 100 μg/ml of apo A-I in RPMI. Background efflux without proteins at each time was measured and subtracted from other data point. Closed circles, sCD14; open circles, apo A-I; inverted triangles, sCD14 and apo A-L. Data represents the mean of three measurements±SD. The data were repeated with similar results.
FIG. 3 is a graph showing the dose dependent additive effect of sCD14 for cholesterol efflux to apo A-I but not to HDL. [^3 H]cholesterol-labeled TBP-1 cells were incubated in buffer containing 50 μg/ml of apo A-I, HDL3 or HDL with or without the indicated concentration of sCD14 for 1 h. Open bar, without sCD14; hatched bar, 10 μg/ml sCD14; black bar, 25 μg/ml sCD14. Background efflux without proteins at each time was measured and subtracted from other data point. Asterisks show statistical significance compared to the data without sCD14: *, p<0.01; **, p<0.001. Data are representative of three independent experiments with similar results.
The following experiment was performed to determine if sCD14 could facilitate the efflux of cholesterol to its major acceptor, apo A-I (FIG. 2). […]

[3] = THP-1 monocytes or HepG2, 10 μM, overnight (~16 hr)

Molecule | time to plateau level of CD14 induction (CD14 mRNA) [h] | EC50 (CD14 mRNA; Homo sapiens, dose dependence (not shown), read-out: half-maximal induction of CD14) [µM] | CD14 mRNA expression (CD14 mRNA; [3]) | time to plateau level of ABCA1 induction (ABCA1 mRNA) [h] | EC50 (ABCA1 mRNA; Homo sapiens, dose dependence (not shown), read-out: half-maximal induction of ABCA1) [µM] | ABCA1 mRNA expression (ABCA1 mRNA; [3]) | concentration at which cholesterol efflux is saturable (THP-1 cells [1]; 30 min assays, THP-1 cells, no other cholesterol acceptor) [µg/mL] | concentration leading to near maximal cholesterol efflux (THP-1 cells [1]; 24 hr duration, THP-1 cells) [µg/mL] | capacity to mediate cholesterol efflux relative to CD14 (THP-1 cells [1]; 24 hr duration, comparison of dose-dependence curves) | cholesterol efflux by protein alone, kinetic analysis (THP-1 cells [2])
CC(C)CC[C@@H](O)[C@@H](C)[C@H]1CC[C@H]2[C@@H]3CC=C4C[C@@H](O)CC[C@]4(C)[C@H]3CC[C@]12C [22(R)-hydroxycholesterol] | ≤ 16 | ~10 | consistent rise | ≤ 16 | ~10 | consistent rise |  |  |  | 
apo A-I: apolipoprotein A-I, major acceptor of cellular cholesterol |  |  |  |  |  |  | 10 to 20 | 10 | 10-20 fold | larger efflux
